Drawing on ChEMBL document CHEMBL5715954, “Silencing c-Myc translation as a therapeutic strategy through targeting PI3Kδ and CK1ε in hematological malignancies” (Blood, 2017), this text covers Activity and inhibition for three molecules.

Assay [1] deals with Calcium/calmodulin-dependent protein kinase type II subunit alpha (Homo sapiens) (UniProt Q9UQM7). The assay is described as follows: Inhibition of human CAMK2a assessed as enzyme activity at 1 uM using KKALRRQETVDAL as substrate preincubated for 20 mins followed by [gamma-33P]-ATP addition and measured after 120 mins by radiometric Hot-SpotSM Kinase assay relative to control. Also noted: scale not given: the % may be the effect or the level left.

The target in assay [2] is Casein kinase I isoform gamma-1 (Homo sapiens) (UniProt Q9HCP0). The assay is described as follows: Inhibition of human CK1g1 assessed as enzyme activity at 1 uM using KRRRAL[pS]VASLPGL as substrate preincubated for 20 mins followed by [gamma-33P]-ATP addition and measured after 120 mins by radiometric Hot-SpotSM Kinase assay relative to control. Also noted: scale not given: the % may be the effect or the level left.

The target in assay [3] is Fibroblast growth factor receptor 3 (Homo sapiens) (UniProt P22607). Nature of the assay: Inhibition of human FGFR3 assessed as enzyme activity at 1 uM using poly[Glu:Tyr] (4:1) as substrate preincubated for 20 mins followed by [gamma-33P]-ATP addition and measured after 120 mins by radiometric Hot-SpotSM Kinase assay relative to control. The arrangement: scale not given: the % may be the effect or the level left.

Assay [4] deals with T1, MAP kinase-activated protein kinase 5 (Homo sapiens) (UniProt Q8IW41).
T1 sequence (whole entry): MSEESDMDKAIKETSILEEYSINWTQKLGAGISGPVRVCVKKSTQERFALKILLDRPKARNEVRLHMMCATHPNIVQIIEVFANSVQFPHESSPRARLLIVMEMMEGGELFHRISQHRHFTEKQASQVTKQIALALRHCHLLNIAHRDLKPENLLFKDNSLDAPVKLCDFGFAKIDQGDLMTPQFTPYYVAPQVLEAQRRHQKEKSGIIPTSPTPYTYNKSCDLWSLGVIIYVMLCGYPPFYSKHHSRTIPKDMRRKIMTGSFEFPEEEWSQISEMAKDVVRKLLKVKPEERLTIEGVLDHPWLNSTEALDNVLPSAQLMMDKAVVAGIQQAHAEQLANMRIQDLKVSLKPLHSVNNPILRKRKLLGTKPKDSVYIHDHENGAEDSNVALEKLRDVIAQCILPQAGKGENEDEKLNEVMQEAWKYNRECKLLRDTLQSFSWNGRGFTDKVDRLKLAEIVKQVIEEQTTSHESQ
Nature of the assay: Inhibition of human MAPKAPK5 assessed as enzyme activity at 1 uM using KKLNRTLSVA as substrate preincubated for 20 mins followed by [gamma-33P]-ATP addition and measured after 120 mins by radiometric Hot-SpotSM Kinase assay relative to control. The arrangement: scale not given: the % may be the effect or the level left.

The target of assay [5] is T2, Serine/threonine-protein kinase 4 (Homo sapiens) (UniProt Q13043).
T2 sequence (whole entry): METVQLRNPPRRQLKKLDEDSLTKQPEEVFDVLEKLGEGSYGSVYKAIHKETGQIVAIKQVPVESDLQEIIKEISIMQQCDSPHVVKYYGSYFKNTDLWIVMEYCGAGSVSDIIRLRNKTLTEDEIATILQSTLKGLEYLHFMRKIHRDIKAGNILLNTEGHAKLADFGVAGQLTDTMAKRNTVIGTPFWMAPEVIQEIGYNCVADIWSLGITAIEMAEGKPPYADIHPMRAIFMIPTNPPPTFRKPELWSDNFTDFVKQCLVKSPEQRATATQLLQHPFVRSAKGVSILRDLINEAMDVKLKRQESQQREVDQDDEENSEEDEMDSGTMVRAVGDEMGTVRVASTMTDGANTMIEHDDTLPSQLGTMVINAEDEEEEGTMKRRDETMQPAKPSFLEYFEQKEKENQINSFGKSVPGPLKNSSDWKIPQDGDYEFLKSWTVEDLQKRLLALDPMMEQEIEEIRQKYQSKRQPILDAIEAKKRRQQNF
Nature of the assay: Inhibition of human MST1 assessed as enzyme activity at 1 uM using KKSRGDYMTMQIG as substrate preincubated for 20 mins followed by [gamma-33P]-ATP addition and measured after 120 mins by radiometric Hot-SpotSM Kinase assay relative to control. Also noted: scale not given: the % may be the effect or the level left.

Assay [6] has as its target T3, Serine/threonine-protein kinase Sgk1 (Homo sapiens) (UniProt O00141).
T3 sequence (whole entry): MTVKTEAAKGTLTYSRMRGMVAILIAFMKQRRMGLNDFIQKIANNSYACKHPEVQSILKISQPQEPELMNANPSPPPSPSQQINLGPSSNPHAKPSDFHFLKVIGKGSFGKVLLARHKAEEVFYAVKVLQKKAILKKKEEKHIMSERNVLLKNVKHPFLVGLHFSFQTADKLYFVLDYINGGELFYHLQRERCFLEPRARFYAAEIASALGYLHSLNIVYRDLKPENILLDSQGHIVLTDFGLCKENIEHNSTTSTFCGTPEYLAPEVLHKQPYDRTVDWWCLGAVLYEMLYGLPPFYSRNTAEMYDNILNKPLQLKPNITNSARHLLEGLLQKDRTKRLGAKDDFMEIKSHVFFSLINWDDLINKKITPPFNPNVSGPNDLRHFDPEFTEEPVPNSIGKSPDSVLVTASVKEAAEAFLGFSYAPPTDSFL
Nature of the assay: Inhibition of human SGK1 assessed as enzyme activity at 1 uM using KGSGSGRPRTSSFAEG as substrate preincubated for 20 mins followed by [gamma-33P]-ATP addition and measured after 120 mins by radiometric Hot-SpotSM Kinase assay relative to control. The arrangement: scale not given: the % may be the effect or the level left.

Assay [7] concerns the target T4, mTORC1 (Homo sapiens) (UniProt P42345+Q8N122+Q9BVC4). Nature of the assay: Inhibition of mTORC1 in human CLL cells assessed as reduction in c-Myc expression at 5 uM measured after 24 hrs by Western blot analysis. The class given is cell-based. Particulars: CLL cell. In general terms: Immunoblotting shows a protein as a band on a membrane.
In assay [8] the target is T4, mTORC1 (Homo sapiens). Nature of the assay: Inhibition of mTORC1 in human SLL cells assessed as reduction in 4E-BP1 phosphorylation at 5 uM measured after 24 hrs by Western blot analysis. It counts as cell-based.
Assay [9] concerns the target T4, mTORC1 (Homo sapiens). Nature of the assay: Inhibition of mTORC1 in human LY7 cells assessed as reduction in 4E-BP1 phosphorylation at 3 uM measured after 24 hrs by Western blot analysis. It counts as cell-based.
The target in assay [10] is T4, mTORC1 (Homo sapiens). The assay is described as follows: Inhibition of mTORC1 in human LY10 cells assessed as reduction in c-Myc expression at 3 uM measured after 24 hrs by Western blot analysis. The class given is cell-based.
In another assay the test system is LY7. Nature of the assay: Cytotoxicity against human LY7 cells assessed as reduction in cell viability measured after 24 hrs by cell titer-glo assay. The class given is functional, cell-based. A general note: In ATP-based viability assays light output follows the ATP content of the culture.
Another assay relates to Z-138. Nature of the assay: Cytotoxicity against human Z138 cells assessed as reduction in cell viability measured after 48 hrs by cell titer-glo assay. It counts as functional, cell-based.
A further assay relates to OCI-Ly10. Nature of the assay: Cytotoxicity against human LY10 cells assessed as reduction in cell viability measured after 24 hrs by cell titer-glo assay. It counts as functional, cell-based.
Another assay relates to JeKo-1. The assay is described as follows: Cytotoxicity against human JeKo-1 cells assessed as reduction in cell viability measured after 24 hrs by cell titer-glo assay. The class given is functional, cell-based.
A further assay deals with MZL. The assay is described as follows: Induction of apoptosis in human MZL cells assessed as increase in cleaved-PARP expression at 5 uM measured after 24 hrs in presence of carfilzomib by Western blot analysis. It counts as functional, cell-based.
The target in assay [11] is T4, mTORC1 (Homo sapiens). The assay is described as follows: Inhibition of mTORC1 in human LY10 cells assessed as reduction in c-Myc mRNA expression at 3 uM measured after 24 hrs in presence of bortezomib. The class given is cell-based.
Assay [12] addresses Myc proto-oncogene protein (Homo sapiens) (UniProt P01106). The assay is described as follows: Inhibition of c-Myc in human LY7 cells assessed as reduction in E2F1 expression at 3 uM incubated for 24 hrs by Western blot analysis. It counts as cell-based.

The source made the active and inactive calls. No cut-off for these calls is given here.

Sequence of Calcium/calmodulin-dependent protein kinase type II subunit alpha (Homo sapiens) (Q9UQM7 whole entry): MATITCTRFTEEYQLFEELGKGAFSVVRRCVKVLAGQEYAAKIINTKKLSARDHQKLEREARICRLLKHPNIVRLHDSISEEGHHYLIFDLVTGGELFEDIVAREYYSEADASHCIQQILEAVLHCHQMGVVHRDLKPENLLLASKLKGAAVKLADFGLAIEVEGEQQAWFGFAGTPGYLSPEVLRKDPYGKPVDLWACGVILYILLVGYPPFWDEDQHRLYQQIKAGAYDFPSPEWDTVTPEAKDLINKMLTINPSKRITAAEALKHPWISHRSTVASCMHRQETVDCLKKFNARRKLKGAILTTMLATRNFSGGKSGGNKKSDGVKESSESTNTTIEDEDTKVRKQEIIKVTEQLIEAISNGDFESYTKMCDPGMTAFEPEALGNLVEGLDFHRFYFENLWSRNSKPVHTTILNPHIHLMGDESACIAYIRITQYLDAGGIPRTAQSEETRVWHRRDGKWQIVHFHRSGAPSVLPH
T4 sequence (Q8N122 whole entry, looked up, other chains not shown): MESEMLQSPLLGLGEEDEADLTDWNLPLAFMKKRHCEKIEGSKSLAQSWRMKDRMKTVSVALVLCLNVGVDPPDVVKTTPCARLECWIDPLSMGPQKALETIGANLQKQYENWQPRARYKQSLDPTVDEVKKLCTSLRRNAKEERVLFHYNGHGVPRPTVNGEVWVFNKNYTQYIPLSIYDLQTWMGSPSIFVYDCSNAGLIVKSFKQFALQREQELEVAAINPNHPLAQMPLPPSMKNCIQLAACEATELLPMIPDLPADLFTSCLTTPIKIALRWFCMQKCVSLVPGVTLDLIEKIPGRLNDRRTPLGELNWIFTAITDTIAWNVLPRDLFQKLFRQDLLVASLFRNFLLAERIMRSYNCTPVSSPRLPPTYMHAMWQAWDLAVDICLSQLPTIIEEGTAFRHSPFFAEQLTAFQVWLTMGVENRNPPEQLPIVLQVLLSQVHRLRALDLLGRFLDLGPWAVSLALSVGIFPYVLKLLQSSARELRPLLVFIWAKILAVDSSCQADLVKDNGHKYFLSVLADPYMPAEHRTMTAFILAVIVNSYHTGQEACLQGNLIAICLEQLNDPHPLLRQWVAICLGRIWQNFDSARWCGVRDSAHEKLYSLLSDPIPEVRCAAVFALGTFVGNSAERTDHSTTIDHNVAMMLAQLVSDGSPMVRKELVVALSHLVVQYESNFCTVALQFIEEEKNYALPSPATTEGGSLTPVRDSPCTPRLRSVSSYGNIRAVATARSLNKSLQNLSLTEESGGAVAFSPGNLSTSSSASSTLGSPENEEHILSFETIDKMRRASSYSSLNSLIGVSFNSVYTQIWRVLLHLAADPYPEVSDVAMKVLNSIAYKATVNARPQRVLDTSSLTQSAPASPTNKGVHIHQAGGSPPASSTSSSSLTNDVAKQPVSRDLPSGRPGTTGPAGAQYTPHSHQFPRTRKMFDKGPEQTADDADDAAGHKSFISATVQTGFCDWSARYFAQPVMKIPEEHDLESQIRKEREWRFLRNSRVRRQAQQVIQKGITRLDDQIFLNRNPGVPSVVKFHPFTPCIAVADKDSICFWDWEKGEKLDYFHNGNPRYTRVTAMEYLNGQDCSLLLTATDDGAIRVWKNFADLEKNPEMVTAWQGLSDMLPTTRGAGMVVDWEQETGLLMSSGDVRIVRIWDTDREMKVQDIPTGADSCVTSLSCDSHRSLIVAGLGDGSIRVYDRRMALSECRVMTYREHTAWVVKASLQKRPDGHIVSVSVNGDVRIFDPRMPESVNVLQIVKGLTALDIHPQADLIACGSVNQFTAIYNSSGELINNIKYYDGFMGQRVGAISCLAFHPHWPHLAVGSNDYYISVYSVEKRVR
T4 sequence (Q9BVC4 whole entry, looked up, other chains not shown): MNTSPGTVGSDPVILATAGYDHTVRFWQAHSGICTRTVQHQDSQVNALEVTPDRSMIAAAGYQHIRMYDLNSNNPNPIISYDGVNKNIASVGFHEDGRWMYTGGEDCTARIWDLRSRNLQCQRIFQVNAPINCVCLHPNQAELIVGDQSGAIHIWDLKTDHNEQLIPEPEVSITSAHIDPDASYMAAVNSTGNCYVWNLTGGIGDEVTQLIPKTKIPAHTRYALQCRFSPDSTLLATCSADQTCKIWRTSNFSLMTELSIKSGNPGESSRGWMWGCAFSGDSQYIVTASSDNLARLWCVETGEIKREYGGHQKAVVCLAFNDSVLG
Sequence of Fibroblast growth factor receptor 3 (Homo sapiens) (P22607 23-806 limits assumed): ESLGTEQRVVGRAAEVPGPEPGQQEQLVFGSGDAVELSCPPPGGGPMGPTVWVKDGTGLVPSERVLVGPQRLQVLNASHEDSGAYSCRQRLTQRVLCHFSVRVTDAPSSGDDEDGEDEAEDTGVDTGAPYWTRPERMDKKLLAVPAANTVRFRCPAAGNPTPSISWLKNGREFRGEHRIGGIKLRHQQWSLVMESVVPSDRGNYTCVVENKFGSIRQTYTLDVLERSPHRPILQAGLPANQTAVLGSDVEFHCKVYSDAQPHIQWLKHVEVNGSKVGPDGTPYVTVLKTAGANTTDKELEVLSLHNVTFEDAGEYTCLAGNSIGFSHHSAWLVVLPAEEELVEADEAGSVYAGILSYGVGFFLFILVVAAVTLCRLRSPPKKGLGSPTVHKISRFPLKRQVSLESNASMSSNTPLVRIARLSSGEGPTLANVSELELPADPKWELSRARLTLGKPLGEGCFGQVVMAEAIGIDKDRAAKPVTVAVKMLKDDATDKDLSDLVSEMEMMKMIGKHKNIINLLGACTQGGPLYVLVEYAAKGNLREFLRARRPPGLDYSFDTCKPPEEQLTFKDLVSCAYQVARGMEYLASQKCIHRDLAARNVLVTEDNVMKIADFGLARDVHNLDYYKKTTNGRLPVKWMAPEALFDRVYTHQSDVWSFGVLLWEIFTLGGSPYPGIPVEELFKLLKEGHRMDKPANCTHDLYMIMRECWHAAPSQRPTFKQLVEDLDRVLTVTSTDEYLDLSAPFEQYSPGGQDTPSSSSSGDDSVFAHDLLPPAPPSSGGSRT
Sequence of Casein kinase I isoform gamma-1 (Homo sapiens) (Q9HCP0 whole entry, looked up, canonical isoform): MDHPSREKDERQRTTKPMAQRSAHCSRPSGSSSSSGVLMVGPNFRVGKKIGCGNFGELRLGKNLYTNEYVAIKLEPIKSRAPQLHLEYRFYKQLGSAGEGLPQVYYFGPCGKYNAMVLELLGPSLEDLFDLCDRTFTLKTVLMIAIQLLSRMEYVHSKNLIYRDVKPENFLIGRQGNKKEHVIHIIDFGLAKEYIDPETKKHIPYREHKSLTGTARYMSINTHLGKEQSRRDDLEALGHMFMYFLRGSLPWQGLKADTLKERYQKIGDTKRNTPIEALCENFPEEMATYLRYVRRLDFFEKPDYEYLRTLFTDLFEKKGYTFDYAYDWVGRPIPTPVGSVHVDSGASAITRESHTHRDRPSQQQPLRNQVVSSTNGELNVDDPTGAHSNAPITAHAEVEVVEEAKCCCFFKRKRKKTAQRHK
Sequence of Myc proto-oncogene protein (Homo sapiens) (P01106 whole entry): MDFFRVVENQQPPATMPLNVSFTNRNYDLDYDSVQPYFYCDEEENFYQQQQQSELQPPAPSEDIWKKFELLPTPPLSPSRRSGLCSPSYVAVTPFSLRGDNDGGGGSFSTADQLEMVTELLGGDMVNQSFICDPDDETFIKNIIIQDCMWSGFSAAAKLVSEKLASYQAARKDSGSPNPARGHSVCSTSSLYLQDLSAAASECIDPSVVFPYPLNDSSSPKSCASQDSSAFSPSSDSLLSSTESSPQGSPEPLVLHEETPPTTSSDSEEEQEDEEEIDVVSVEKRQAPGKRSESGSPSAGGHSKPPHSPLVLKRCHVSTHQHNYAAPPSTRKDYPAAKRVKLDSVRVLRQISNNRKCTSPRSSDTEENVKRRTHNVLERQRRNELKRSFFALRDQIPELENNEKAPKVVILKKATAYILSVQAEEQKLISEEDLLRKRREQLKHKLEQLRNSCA

Turning to `C[C@H](Nc1ncnc2nc[nH]c12)c1cc2cccc(Cl)c2c(=O)n1-c1ccccc1`, the Activity in assay [1] came out at 95.4%; in assay [2] it was 98.3%; in assay [3] it was 93.2%; in assay [4] it was 99%; in assay [5] it was 94.1%; in assay [6] it was 102%.

For the molecule `CC[C@H](Nc1ncnc2[nH]cnc12)c1nc2cccc(F)c2c(=O)n1-c1ccccc1`, the inhibition entry (on mTORC1 (Homo sapiens) [7]; on mTORC1 (Homo sapiens) [8]; at mTORC1 (Homo sapiens) [9]; at mTORC1 (Homo sapiens) [10]; on mTORC1 (Homo sapiens) [11]; in assay [12]) was “inactive” throughout. Also, the result in the assay on LY7, in the assay on Z-138, in the assay with OCI-Ly10, in the assay on JeKo-1 and with MZL was Active. Also, the Activity in assay [1] amounted to 101%; in assay [2], 105%; in assay [3], 88.8%; in [4], 99.5%; in assay [5], 89.8%; in [6], 105%.

Turning to `CC(C)Oc1ccc(-c2nn([C@@H](C)c3oc4ccc(F)cc4c(=O)c3-c3cccc(F)c3)c3ncnc(N)c23)cc1F` [UMBRALISIB], the inhibition result (at mTORC1 (Homo sapiens) [7]; on mTORC1 (Homo sapiens) [8]; on mTORC1 (Homo sapiens) [9]; on mTORC1 (Homo sapiens) [10]; at mTORC1 (Homo sapiens) [11]; in assay [12]) was “inactive” in each case. Moreover, the result with LY7, in the assay on Z-138, in the assay on OCI-Ly10, in the assay with JeKo-1 and in the assay with MZL was Active. For the same molecule, the Activity in assay [1] was 100%; in [2], 97.6%; in assay [3] it was 94.3%; in [4], 104%; in [5] it was 95.1%; in assay [6], 102%.
